According to ChEMBL document CHEMBL1201862, “PubChem BioAssay data set” (2004):
The source made the active and inactive calls.

What was measured:
Beta-galactosidase = Beta-galactosidase (Escherichia coli, UniProt Q8VNN2); test: Dose response counterscreen for EBI2 assay utilizing the enzyme, b-galactosidase.; assay type: functional
BJ [1] = test: cytotoxicity toward BJ-TERT fibroblasts, dose response, cell-based, RAS-independent, luminescence (AID 1933); assay type: functional; settings: Homo sapiens
BJ [2] = test: cells; assay type: functional, cell-based; settings: Homo sapiens
[3] = molecular target: Luciferin 4-monooxygenase (Photinus pyralis, UniProt P08659); test: firefly luciferase enzyme inhibitors, dose response, biochemical, luminescence (AID 1891)
Luciferin 4-monooxygenase, sequence (P08659 whole entry): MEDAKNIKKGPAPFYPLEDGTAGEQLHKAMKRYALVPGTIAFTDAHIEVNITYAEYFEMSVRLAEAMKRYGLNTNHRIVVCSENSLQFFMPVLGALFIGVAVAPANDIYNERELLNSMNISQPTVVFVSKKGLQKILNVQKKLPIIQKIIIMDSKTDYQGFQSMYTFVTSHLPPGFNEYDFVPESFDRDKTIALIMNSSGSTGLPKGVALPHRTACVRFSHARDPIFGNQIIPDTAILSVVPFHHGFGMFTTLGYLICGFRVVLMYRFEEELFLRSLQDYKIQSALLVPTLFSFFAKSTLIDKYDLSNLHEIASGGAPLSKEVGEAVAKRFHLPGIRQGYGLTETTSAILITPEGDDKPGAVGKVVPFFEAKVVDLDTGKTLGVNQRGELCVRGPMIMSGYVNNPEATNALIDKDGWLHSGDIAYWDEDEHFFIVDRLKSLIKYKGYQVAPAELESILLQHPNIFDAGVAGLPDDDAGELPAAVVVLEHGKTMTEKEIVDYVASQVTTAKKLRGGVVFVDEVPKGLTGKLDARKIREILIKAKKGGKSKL

[4] = Luminescence Cell-Based Dose Confirmation HTS to Identify Inhibitors of Platelet Dense Granule Release. [Related pubchem assays: 1663 (Primary HTS), 1678 (Summary of Project)]; assay type: functional
BJ [5] = test: cytotoxicity toward BJ-TERT-LT-ST fibroblasts, dose response, cell-based, RAS-independent, luminescence (AID 1935); assay type: functional; settings: Homo sapiens;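 note: BJ fibroblasts immortalized with TERT plus LT and ST oncogenes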
[6] = cytotoxicity toward DRD oncogenic fibroblasts, dose response, cell-based, non-viral oncogenic, luminescence (AID 1934); assay type: functional; settings: Homo sapiens
[7] = molecular target: Glucose-6-phosphate 1-dehydrogenase (Homo sapiens, UniProt P11413); test: human G6PD enzyme inhibitors, dose response, selectivity assay for P. falciparum G6PD inhibitor project, biochemical, fluorescence (AID 504792); assay type: functional
Glucose-6-phosphate 1-dehydrogenase, sequence (P11413 whole entry): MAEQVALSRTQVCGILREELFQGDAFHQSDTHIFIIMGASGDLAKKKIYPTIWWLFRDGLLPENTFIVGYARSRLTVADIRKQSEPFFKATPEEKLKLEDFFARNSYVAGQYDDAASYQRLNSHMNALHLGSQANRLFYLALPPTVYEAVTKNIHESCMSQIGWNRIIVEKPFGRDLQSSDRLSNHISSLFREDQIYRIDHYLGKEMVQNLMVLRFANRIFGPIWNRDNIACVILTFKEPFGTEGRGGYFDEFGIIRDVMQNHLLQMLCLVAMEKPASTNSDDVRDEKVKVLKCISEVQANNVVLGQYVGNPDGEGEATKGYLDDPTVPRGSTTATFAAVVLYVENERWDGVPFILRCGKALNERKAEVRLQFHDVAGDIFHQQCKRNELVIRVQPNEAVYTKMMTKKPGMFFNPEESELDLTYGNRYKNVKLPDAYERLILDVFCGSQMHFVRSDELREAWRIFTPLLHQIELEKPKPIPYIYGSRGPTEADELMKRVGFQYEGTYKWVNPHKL

Vero = Vero cell cytotoxicity, cytotoxicity control for flavivirus capping enzyme inhibitors (AID 588742); assay type: functional; settings: Chlorocebus sabaeus
Genome polyprotein = Genome polyprotein (dengue virus type 2, UniProt P29990); test: Dengue-2 NS5 methyltransferase inhibitors, primary screen, biochemical, confirmation dose response (AID 588689); assay type: functional
Genome polyprotein, sequence (P29990 2492-3391 limits assumed): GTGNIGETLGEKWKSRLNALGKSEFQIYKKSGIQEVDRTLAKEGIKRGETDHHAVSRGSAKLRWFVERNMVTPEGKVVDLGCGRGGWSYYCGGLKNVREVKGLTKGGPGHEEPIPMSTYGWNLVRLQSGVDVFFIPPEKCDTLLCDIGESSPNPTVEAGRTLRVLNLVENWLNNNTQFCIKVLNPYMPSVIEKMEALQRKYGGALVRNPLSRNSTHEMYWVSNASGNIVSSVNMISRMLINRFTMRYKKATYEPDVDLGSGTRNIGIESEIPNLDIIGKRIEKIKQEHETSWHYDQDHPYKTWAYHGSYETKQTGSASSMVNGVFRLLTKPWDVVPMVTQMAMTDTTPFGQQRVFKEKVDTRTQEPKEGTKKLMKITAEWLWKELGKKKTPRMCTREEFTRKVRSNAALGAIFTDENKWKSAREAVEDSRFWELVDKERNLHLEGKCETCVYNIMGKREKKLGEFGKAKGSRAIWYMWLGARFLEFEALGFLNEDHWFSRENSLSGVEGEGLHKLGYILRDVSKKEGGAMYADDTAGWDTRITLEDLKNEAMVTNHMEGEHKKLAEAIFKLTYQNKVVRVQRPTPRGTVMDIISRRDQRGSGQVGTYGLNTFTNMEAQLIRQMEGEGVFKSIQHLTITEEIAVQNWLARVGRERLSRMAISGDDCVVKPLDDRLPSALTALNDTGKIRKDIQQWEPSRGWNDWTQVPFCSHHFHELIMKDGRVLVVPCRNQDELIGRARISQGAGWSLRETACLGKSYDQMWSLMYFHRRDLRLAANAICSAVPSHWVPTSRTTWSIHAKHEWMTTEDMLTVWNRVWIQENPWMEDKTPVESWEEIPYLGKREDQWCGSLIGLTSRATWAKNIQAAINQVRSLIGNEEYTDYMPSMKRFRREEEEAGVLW

[8] = molecular target: T1, Sentrin-specific protease 8 (Homo sapiens, UniProt Q96LD8); assay type: functional
T1 sequence (Q96LD8 whole entry): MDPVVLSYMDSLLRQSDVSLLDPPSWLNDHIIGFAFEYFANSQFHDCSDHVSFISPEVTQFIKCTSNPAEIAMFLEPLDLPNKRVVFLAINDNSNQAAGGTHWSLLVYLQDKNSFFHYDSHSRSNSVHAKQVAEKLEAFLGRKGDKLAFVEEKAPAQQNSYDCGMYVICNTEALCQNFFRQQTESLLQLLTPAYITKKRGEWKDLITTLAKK

[9] = molecular target: T1, Sentrin-specific protease 8; assay type: functional; remark: listed apart in the source
[10] = molecular target: Heat shock protein HSP 90-alpha (Homo sapiens, UniProt P07900); assay type: functional, organism-based
[11] = molecular target: T2, Sentrin-specific protease 1 (Homo sapiens, UniProt Q9P0U3); test: potency of human SENP1 inhibitors, dose response, biochemical, kinetic FRET (AID 651697); assay type: functional; settings: read-out: IC50_Mean
T2 sequence (Q9P0U3 whole entry): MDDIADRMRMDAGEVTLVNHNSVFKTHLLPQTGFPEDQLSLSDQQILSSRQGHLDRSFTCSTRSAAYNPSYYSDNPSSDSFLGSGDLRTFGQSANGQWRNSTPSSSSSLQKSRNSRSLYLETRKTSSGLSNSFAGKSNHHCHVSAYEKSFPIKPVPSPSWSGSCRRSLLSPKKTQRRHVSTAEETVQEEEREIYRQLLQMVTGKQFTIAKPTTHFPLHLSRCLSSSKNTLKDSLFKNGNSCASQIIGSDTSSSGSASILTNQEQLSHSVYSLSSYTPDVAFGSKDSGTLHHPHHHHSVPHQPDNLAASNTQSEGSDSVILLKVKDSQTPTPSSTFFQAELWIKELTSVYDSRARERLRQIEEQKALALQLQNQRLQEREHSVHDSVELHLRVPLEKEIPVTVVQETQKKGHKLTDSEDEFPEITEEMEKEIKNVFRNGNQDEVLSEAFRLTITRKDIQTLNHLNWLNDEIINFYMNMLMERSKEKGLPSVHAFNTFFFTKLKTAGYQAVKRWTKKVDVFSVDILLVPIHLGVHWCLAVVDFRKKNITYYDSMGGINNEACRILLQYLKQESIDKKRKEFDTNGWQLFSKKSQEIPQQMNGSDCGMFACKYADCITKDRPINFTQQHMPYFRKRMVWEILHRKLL

[12] = molecular target: T2, Sentrin-specific protease 1; test: Dose response confirmation of small molecule inhibitors of the catalytic domain of the SUMO protease, SENP1 in a FRET assay.; assay type: functional; settings: read-out: IC50_Mean

Beta-galactosidase, sequence (Q8VNN2 whole entry): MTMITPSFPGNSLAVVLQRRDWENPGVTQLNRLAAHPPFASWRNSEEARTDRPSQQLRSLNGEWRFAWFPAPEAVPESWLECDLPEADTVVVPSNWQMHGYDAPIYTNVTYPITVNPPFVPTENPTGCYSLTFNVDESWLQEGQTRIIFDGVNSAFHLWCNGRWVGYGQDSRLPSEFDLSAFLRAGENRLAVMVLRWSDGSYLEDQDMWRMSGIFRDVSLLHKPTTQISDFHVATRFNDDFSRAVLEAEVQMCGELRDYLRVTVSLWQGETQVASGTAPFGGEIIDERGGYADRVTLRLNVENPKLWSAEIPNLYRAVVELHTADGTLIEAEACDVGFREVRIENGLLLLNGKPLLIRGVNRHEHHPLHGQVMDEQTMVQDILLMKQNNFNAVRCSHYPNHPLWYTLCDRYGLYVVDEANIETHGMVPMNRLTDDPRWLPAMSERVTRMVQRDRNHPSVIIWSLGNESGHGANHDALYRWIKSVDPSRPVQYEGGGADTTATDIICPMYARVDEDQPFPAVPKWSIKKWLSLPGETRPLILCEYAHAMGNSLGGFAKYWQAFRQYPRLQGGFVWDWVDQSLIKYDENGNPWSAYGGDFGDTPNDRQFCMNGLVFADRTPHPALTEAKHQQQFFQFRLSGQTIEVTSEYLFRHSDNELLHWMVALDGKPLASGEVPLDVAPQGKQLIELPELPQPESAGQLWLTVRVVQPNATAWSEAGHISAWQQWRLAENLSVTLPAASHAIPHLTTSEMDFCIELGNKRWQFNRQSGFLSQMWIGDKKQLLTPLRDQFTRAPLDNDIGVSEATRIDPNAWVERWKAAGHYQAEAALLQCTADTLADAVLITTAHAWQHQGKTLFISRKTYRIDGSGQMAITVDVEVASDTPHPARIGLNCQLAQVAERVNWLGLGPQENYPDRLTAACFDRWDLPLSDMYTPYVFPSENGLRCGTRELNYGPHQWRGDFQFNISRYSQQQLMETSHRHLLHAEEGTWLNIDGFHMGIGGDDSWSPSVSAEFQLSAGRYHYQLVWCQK

Question: For COc1ccc(OCC(=O)N2CCN(c3nnc(-c4ccc(C)cc4)c4ccccc34)CC2)cc1, which IC50 (Beta-galactosidase) is on record?
Answer: > 80 µM (inactive)

Question: For COc1cccc2nc3cc(C)c(C)cc3nc12, which EC50 (BJ [1]) is on record?
Answer: 3.31 µM (active)

Question: What about the EC50 (BJ [2]) of the same compound?
Answer: 3.05 µM (active)

Question: What about the EC50 [3] of the same compound?
Answer: 0.923 µM (active)

Question: And the EC50 [4]?
Answer: 7.02 µM (active)

Question: What about the EC50 (BJ [5]) of the same compound?
Answer: 12.2 µM (inconclusive)

Question: And the EC50 [6]?
Answer: 3.01 µM (active)

Question: And the IC50 [7]?
Answer: 37.1 µM (inactive)

Question: And the CC50 (Vero)?
Answer: 11.7 µM (active)

Question: What about the IC50 (Genome polyprotein) of the same compound?
Answer: 62.2 µM (active)

Question: What about the IC50 [8] of the same compound?
Answer: 8.48 µM (active)

Question: What about the IC50 [9] of the same compound?
Answer: 8.2 µM (active)

Question: For CCOc1ccc(Br)cc1C1=NN(C(C)=O)C(c2ccc([N+](=O)[O-])s2)O1 (configuration not stated), which AC50 [10] is on record?
Answer: 7.83 µM (active)

Question: What about the IC50 [8] of the same compound?
Answer: 11 µM (active)

Question: And the IC50 [9]?
Answer: 9.04 µM (active)

Question: Which IC50 [11] does the source give for COc1ccc([C@H]2CC(=O)C=C(c3cccc(Cl)c3O)C2)cc1OC here?
Answer: 8.62 µM (active)

Question: And the IC50 [12]?
Answer: 4.36 µM (active)
